Assay results from patent US9346761B2, “Arginine methyltransferase inhibitors and uses thereof” (Epizyme, Inc., priority 2013, dated 2016).

Molecular target: T1, Full-length human PRMT3 (Homo sapiens, UniProt O60678)
T1 construct: GST-tagged PRMT3; made in house; host or cells: E. coli BL21(DE3) Gold (pGEX-KG)
Experiment: PRMT3 biochemical assay (3H-SAM Flashplate, peptide substrate)
Outline: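 Methylation of a biotinylated peptide (330 nM) by 0.5 nM GST-PRMT3 using 3H-SAM 100 nM with unlabelled SAM 1.8 uM, 20 mM Bicine pH 7.6, 2% DMSO, after 30 min enzyme–compound preincubation. Scintillation counts on streptavidin Flashplates normalised to 1 mM SAH and DMSO controls; curve fits with floating or fixed Hill slope.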

T1 sequence (O60678 with tags, fused parts or gaps): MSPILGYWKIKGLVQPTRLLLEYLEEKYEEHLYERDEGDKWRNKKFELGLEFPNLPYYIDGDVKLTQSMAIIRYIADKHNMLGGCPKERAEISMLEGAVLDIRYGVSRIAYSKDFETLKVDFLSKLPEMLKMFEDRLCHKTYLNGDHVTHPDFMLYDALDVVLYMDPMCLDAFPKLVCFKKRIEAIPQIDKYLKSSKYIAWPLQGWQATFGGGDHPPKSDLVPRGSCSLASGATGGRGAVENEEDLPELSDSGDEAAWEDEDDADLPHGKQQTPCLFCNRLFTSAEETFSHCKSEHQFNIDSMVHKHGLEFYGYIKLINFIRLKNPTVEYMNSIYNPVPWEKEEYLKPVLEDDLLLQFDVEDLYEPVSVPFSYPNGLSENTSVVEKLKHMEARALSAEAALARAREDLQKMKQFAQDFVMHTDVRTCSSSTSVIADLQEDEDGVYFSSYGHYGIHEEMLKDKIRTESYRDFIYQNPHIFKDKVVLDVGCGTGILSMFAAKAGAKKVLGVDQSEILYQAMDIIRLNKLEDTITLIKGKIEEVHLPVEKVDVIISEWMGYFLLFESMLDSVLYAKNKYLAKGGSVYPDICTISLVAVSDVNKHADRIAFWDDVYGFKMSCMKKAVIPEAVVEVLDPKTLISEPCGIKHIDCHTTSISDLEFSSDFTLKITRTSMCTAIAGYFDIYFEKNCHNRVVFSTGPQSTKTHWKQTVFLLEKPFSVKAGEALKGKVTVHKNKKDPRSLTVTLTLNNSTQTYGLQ

Compound	IC50 [µM]
CN(CCN)Cc1c[nH]nc1-c1ccc(OC(F)F)cc1 [Compound 94]	3.01 to 10
CN(CCN)Cc1cn(CC(O)CO)nc1-c1ccc(F)cc1 (stereo not shown) [Compound 76]	> 10
CCCN(CCN)Cc1c[nH]nc1-c1ccc(F)cc1 [Compound 63]	> 10
CN(CCN)Cc1cn(CCO)nc1-c1ccc(F)cc1 [Compound 66]	> 10
CNCCN(C)Cc1c[nH]nc1-c1ccc(OC)cc1OC [Compound 55]	> 10
CN(CCN)Cc1c(-c2ccc(C#N)cc2)cnn1C [Compound 84]	> 10
CNCCN(C)Cc1c[nH]nc1-c1ccccc1O [Compound 35]	> 10
CNCCN(C)Cc1c[nH]nc1-c1ccccc1Oc1ccccc1 [Compound 36]	> 10
CNCCN(C)Cc1c[nH]nc1-c1ccc(F)cc1 [Compound 2, N^1-((3-(4-fluorophenyl)-1H-pyrazol-4-yl)methyl)-N^1,N^2-dimethylethane-1,2-diamine]	3.01 to 10
CN(CCN)Cc1cn(C)nc1-c1ccc(F)cc1 [Compound 3]	> 10
CC(C)Oc1ccc(-c2n[nH]cc2CN(C)CCN)cc1 [Compound 67]	3.01 to 10
CNCCN(C)Cc1c[nH]nc1-c1ccc(-c2ccccc2)cc1 [Compound 47]	0.101 to 1
CN(CCN)Cc1c[nH]nc1-c1cccc(C#N)c1 [Compound 70]	> 10
CNCCN(C)Cc1c[nH]nc1-c1c(OC)cccc1OC [Compound 56]	> 10
CNCCN(C)Cc1c[nH]nc1-c1ccccc1F [Compound 48]	> 10
CN(CCN)Cc1c[nH]nc1-c1cccc(F)c1 [Compound 71]	> 10
Cc1ccc(-c2n[nH]cc2CN(C)CCN)c(Cl)c1 [Compound 90]	3.01 to 10
COc1ccc(-c2n[nH]cc2CN(C)CCN)c(OC)c1 [Compound 87]	> 10
CN(CCN)Cc1c[nH]nc1-c1ccccc1F [Compound 72]	> 10
CNCCN(C)Cc1cnn(CC2CCOCC2)c1-c1ccc(F)cc1 [Compound 12]	> 10
CNCCN(C)Cc1c[nH]nc1-c1ccc(C(=O)c2ccccc2)cc1 [Compound 45]	3.01 to 10
COCCn1cc(CN(C)CCN(C)C)c(-c2ccc(F)cc2)n1 [Compound 61]	> 10
CNCCN(C)Cc1cnn(C)c1-c1ccc(F)cc1 [Compound 10]	> 10

Compound	IC50 [µM]
CNCCN(C)Cc1c[nH]nc1-c1cccc2ccccc12 [Compound 57]	3.01 to 10
CN(CCN)Cc1c[nH]nc1-c1ccc(OC(F)(F)F)cc1 [Compound 93]	3.01 to 10
NCCN(Cc1c[nH]nc1-c1ccc(F)cc1)C1CC1 [Compound 78]	> 10
CN(CCN)Cc1cnn(CC2COC2)c1-c1ccc(F)cc1 [Compound 80]	> 10
CNCCN(C)Cc1c[nH]nc1-c1cc(Cl)ccc1OC [Compound 53]	> 10
CN(CCN)Cc1c[nH]nc1-c1ccc(C#N)cc1 [Compound 68]	3.01 to 10
CNCCN(C)Cc1c[nH]nc1-c1ccc(CC#N)cc1 [Compound 34]	> 10
CNCCN(C)Cc1cn(CC2CCOCC2)nc1-c1ccc(F)cc1 [Compound 11]	> 10
CNCCN(C)Cc1c[nH]nc1-c1cccc(N)c1 [Compound 32]	1.01 to 3
CN(CCN)Cc1c[nH]nc1-c1ccc(Cl)cc1Cl [Compound 86]	3.01 to 10
CNCCN(C)Cc1c[nH]nc1-c1ccc(OC)c(F)c1 [Compound 52]	3.01 to 10
CCN(CCNC)Cc1c[nH]nc1-c1ccc(F)cc1 [Compound 9]	3.01 to 10
CN(CCN)Cc1n[nH]cc1-c1ccc(F)cc1 [Compound 69]	> 10
CN(CCN)Cc1c[nH]nc1-c1ccc(N2CCNCC2)cc1 [Compound 82]	1.01 to 3
CN(CCN)Cc1cn[nH]c1-c1ccc(F)cc1 [Compound 1]	1.01 to 3
CN(CCN)Cc1cn(CC2COC2)nc1-c1ccc(F)cc1 [Compound 79]	> 10
CNCCN(C)Cc1c[nH]nc1-c1ccc(F)c(F)c1 [Compound 51]	3.01 to 10
CNCCN(C)Cc1c[nH]nc1-c1cccc(NC(C)=O)c1 [Compound 42]	1.01 to 3
CNCCN(C)Cc1c[nH]nc1-c1cccc(OC(F)(F)F)c1 [Compound 39]	> 10
CCNCCN(C)Cc1c[nH]nc1-c1ccc(F)cc1 [Compound 60]	> 10
CN(CCN)Cc1cn(C2COC2)nc1-c1ccc(F)cc1 [Compound 77]	3.01 to 10
CN(CCN)Cc1c[nH]nc1-c1ccc(F)cc1Cl [Compound 89]	3.01 to 10
CN(CCN)Cc1cnn(CCO)c1-c1ccc(F)cc1 [Compound 65]	> 10

Compound	IC50 [µM]
CNCCN(C)Cc1c[nH]nc1-c1cc(F)ccc1F [Compound 50]	> 10
COCCn1ncc(CN(C)CCN(C)C)c1-c1ccc(F)cc1 [Compound 64]	> 10
CCN(CCN)Cc1c[nH]nc1-c1ccc(F)cc1 [Compound 62]	3.01 to 10
CN(CCN)Cc1cnn(C2COC2)c1-c1ccc(F)cc1 [Compound 81]	> 10
CNCCN(C)Cc1c[nH]nc1-c1cccc(C(C)=O)c1 [Compound 44]	3.01 to 10
CNCCN(C)Cc1c[nH]nc1-c1ccc(F)cc1F [Compound 49]	3.01 to 10
CC(C)Oc1ccc(-c2n[nH]cc2CN(C)CCN)cc1Cl [Compound 168]	3.01 to 10
CN(CCN)Cc1c[nH]nc1-c1ccccc1 [Compound 73]	> 10
CNCCN(C)Cc1cn(CCC(O)CO)nc1-c1ccc(F)cc1 (stereo not shown) [Compound 59]	> 10
CN(CCN)Cc1nn(C)cc1-c1ccc(C#N)cc1 [Compound 83]	> 10
Cc1ccc(Cl)c(-c2n[nH]cc2CN(C)CCN)c1 [Compound 91]	> 10
CNCCN(C)Cc1c[nH]nc1-c1cccc(OC)c1OC [Compound 54]	> 10
CN(CCN)Cc1cnn(C)c1-c1ccc(F)cc1 [Compound 4]	> 10
CNCCN(C)Cc1c[nH]nc1-c1ccccc1-c1ccccc1 [Compound 46]	> 10
Cc1ccc(-c2n[nH]cc2CN(C)CCN)c(C)c1 [Compound 88]	3.01 to 10
CC(C)N(CCN)Cc1c[nH]nc1-c1ccc(F)cc1 [Compound 75]	> 10
CNCCN(C)Cc1c[nH]nc1-c1ccccc1NS(C)(=O)=O [Compound 41]	> 10
CN(CCN)Cc1c[nH]nc1-c1ccc(C(C)(C)C)cc1 [Compound 74]	> 10
CN(CCN)Cc1c[nH]nc1-c1ccc(C(F)(F)F)cc1 [Compound 92]	3.01 to 10
CNCCN(C)Cc1c[nH]nc1-c1ccc2ccccc2c1 [Compound 58]	3.01 to 10
CN(CCN)Cc1c[nH]nc1-c1ccc(C(F)(F)F)cc1C(F)(F)F [Compound 85]	> 10
